In the supplement of paper PMC11061612:

What was measured:
[1] = test system: CAMA-1 (Breast Carcinoma); assay: Bliss excess, mean over the matrix (fraction); higher = more synergy
Summary of the method: (§1)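 Cell lines in DMEM/F12 or RPMI with 10% FBS were plated in 1536-well plates, held 24 hours at 37°C, 5% CO2, then given two-drug dose matrices for 72 hours (DMSO typically 0.2%). Viability was read by CellTiter-Glo 2.0 luminescence and scaled as inhibition from 0 (vehicle wells) to 1 (blank wells). Combination Emax is the second-highest inhibition in the matrix; Bliss excess is observed combination effect minus expected EA + EB − EA·EB, EA and EB being single-agent effects.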

[2] = test system: L-540 (Hodgkin's Lymphoma); assay: as above
Summary of the method: as §1

[3] = test system: K-562 (Chronic Myelogenous Leukemia); assay: as above
Summary of the method: as §1

[4] = test system: SR (Other Blood Carcinomas); assay: as above
Summary of the method: as §1

[5] = test system: NCI-H1792 (Lung Adenocarcinoma); assay: as above
Summary of the method: as §1

ES8 (Ewing's Sarcoma) [6] = assay: as above
Summary of the method: as §1

[7] = test system: GR-ST (B-Lymphoblastic Leukemia); assay: as above
Summary of the method: as §1

WIL2-NS (Non-Cancerous) [8] = assay: as above
Summary of the method: as §1

NCI-H2818 (Mesothelioma) [9] = assay: as above
Summary of the method: as §1

[10] = test system: SW837 (Colorectal Carcinoma); assay: as above
Summary of the method: as §1

[11] = test system: MKN28 (Gastric Carcinoma); assay: as above
Summary of the method: as §1

[12] = test system: DND-41 (T-Lymphoblastic Leukemia); assay: as above
Summary of the method: as §1

WM-115 (Melanoma) [13] = assay: as above
Summary of the method: as §1

[14] = test system: BFTC-905 (Bladder Carcinoma); assay: as above
Summary of the method: as §1

ES1 (Ewing's Sarcoma) [15] = assay: as above
Summary of the method: as §1

[16] = test system: SW1417 (Colorectal Carcinoma); assay: as above
Summary of the method: as §1

[17] = test system: BL-41 (Burkitt's Lymphoma); assay: as above
Summary of the method: as §1

[18] = test system: CAMA-1 (Breast Carcinoma); assay: combination Emax (second highest fraction inhibited in the dose matrix, 72 h); higher = more inhibition; extreme values may be limits of the assay
Summary of the method: as §1

[19] = test system: L-540 (Hodgkin's Lymphoma); assay: as above
Summary of the method: as §1

[20] = test system: K-562 (Chronic Myelogenous Leukemia); assay: as above
Summary of the method: as §1

[21] = test system: SR (Other Blood Carcinomas); assay: as above
Summary of the method: as §1

[22] = test system: NCI-H1792 (Lung Adenocarcinoma); assay: as above
Summary of the method: as §1

ES8 (Ewing's Sarcoma) [23] = assay: as above
Summary of the method: as §1

[24] = test system: GR-ST (B-Lymphoblastic Leukemia); assay: as above
Summary of the method: as §1

WIL2-NS (Non-Cancerous) [25] = assay: as above
Summary of the method: as §1

NCI-H2818 (Mesothelioma) [26] = assay: as above
Summary of the method: as §1

[27] = test system: SW837 (Colorectal Carcinoma); assay: as above
Summary of the method: as §1

[28] = test system: MKN28 (Gastric Carcinoma); assay: as above
Summary of the method: as §1

[29] = test system: DND-41 (T-Lymphoblastic Leukemia); assay: as above
Summary of the method: as §1

WM-115 (Melanoma) [30] = assay: as above
Summary of the method: as §1

[31] = test system: BFTC-905 (Bladder Carcinoma); assay: as above
Summary of the method: as §1

ES1 (Ewing's Sarcoma) [32] = assay: as above
Summary of the method: as §1

[33] = test system: SW1417 (Colorectal Carcinoma); assay: as above
Summary of the method: as §1

[34] = test system: BL-41 (Burkitt's Lymphoma); assay: as above
Summary of the method: as §1
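Wherever Bliss excess, mean over the matrix is given: after 72 h of two-drug dosing.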

SMILES: O=C(c1cc(Cc2n[nH]c(=O)c3ccccc23)ccc1F)N1CCN(C(=O)C2CC2)CC1 [Olaparib] + COc1nnc2ccc(N3CCC(c4ccc(OCCN5CCN(C)C(=O)[C@H]5C)cc4)CC3)nn12 [AZD5153] (first compound max 10 µM, 7x7, partner max 1 µM)
- Bliss excess [1]: -0.0417
- Bliss excess [2]: -0.0841
- Bliss excess [3]: -0.0063
- Bliss excess [4]: 0.0315
- Bliss excess [5]: -0.0554
- Bliss excess (ES8 (Ewing's Sarcoma) [6]): 0.0168
- Bliss excess [7]: -0.0519
- Bliss excess (WIL2-NS (Non-Cancerous) [8]): -0.0128
- Bliss excess (NCI-H2818 (Mesothelioma) [9]): -0.0205
- Bliss excess [10]: -0.0656
- Bliss excess [11]: -0.056
- Bliss excess [12]: 0.0275
- Bliss excess (WM-115 (Melanoma) [13]): -0.135
- Bliss excess [14]: -0.0614
- Bliss excess (ES1 (Ewing's Sarcoma) [15]): -0.0392
- Bliss excess [16]: -0.0096
- Bliss excess [17]: -0.0634
- combination Emax [18]: 0.484
- combination Emax [19]: 0.619
- combination Emax [20]: 0.412
- combination Emax [21]: 0.626
- combination Emax [22]: 0.527
- combination Emax (ES8 (Ewing's Sarcoma) [23]): 0.966
- combination Emax [24]: 0.776
- combination Emax (WIL2-NS (Non-Cancerous) [25]): 0.818
- combination Emax (NCI-H2818 (Mesothelioma) [26]): 0.325
- combination Emax [27]: 0.484
- combination Emax [28]: 0.362
- combination Emax [29]: 0.69
- combination Emax (WM-115 (Melanoma) [30]): 0.295
- combination Emax [31]: 0.6
- combination Emax (ES1 (Ewing's Sarcoma) [32]): 0.882
- combination Emax [33]: 0.448
- combination Emax [34]: 0.648

SMILES: C=CCn1c(=O)c2cnc(Nc3ccc(N4CCN(C)CC4)cc3)nc2n1-c1cccc(C(C)(C)O)n1 [AZD1775] + Nc1ccn([C@@H]2O[C@H](CO)[C@@H](O)C2(F)F)c(=O)n1 [Gemcitabine] (first compound max 1 µM, partner max 0.3 µM)
- Bliss excess [1]: 0.0354
- Bliss excess [2]: 0.0052
- Bliss excess [3]: 0.0554
- Bliss excess [4]: 0.0344
- Bliss excess [5]: -0.0287
- Bliss excess (ES8 (Ewing's Sarcoma) [6]): 0.0248
- Bliss excess [7]: -0.0072
- Bliss excess (WIL2-NS (Non-Cancerous) [8]): 0.0149
- Bliss excess (NCI-H2818 (Mesothelioma) [9]): -0.0333
- Bliss excess [10]: 0.0269
- Bliss excess [11]: 0.0781
- Bliss excess [12]: 0.0256
- Bliss excess (WM-115 (Melanoma) [13]): 0.0368
- Bliss excess [14]: -0.0015
- Bliss excess (ES1 (Ewing's Sarcoma) [15]): 0.0471
- Bliss excess [16]: 0.0353
- Bliss excess [17]: -0.0067
- combination Emax [18]: 0.534
- combination Emax [19]: 0.968
- combination Emax [20]: 0.869
- combination Emax [21]: 1
- combination Emax [22]: 0.878
- combination Emax (ES8 (Ewing's Sarcoma) [23]): 1
- combination Emax [24]: 0.855
- combination Emax (WIL2-NS (Non-Cancerous) [25]): 0.973
- combination Emax (NCI-H2818 (Mesothelioma) [26]): 0.44
- combination Emax [27]: 0.691
- combination Emax [28]: 0.552
- combination Emax [29]: 0.943
- combination Emax (WM-115 (Melanoma) [30]): 0.459
- combination Emax [31]: 0.836
- combination Emax (ES1 (Ewing's Sarcoma) [32]): 1
- combination Emax [33]: 0.663
- combination Emax [34]: 1

SMILES: Cc1c2c(nn1C)CSCc1cc(n(C)n1)CSc1cc(c3ccccc3c1)OCCCc1c(C(=O)O)n(C)c3c-2c(Cl)ccc13 [AZD5991] + CC(=O)O[C@H]1C(=O)[C@@]2(C)[C@H]([C@H](OC(=O)c3ccccc3)[C@]3(O)C[C@H](OC(=O)[C@H](O)[C@@H](NC(=O)c4ccccc4)c4ccccc4)C(C)=C1C3(C)C)[C@]1(OC(C)=O)CO[C@@H]1C[C@@H]2O [Paclitaxel] (first compound max 1 µM, 7x7, partner max 3 µM)
- Bliss excess [1]: 0.117
- Bliss excess [2]: 0.0087
- Bliss excess [3]: -0.0245
- Bliss excess [4]: 0.0191
- Bliss excess [5]: -0.0037
- Bliss excess (ES8 (Ewing's Sarcoma) [6]): 0.0091
- Bliss excess [7]: -0.0628
- Bliss excess (WIL2-NS (Non-Cancerous) [8]): -0.137
- Bliss excess (NCI-H2818 (Mesothelioma) [9]): -0.0054
- Bliss excess [10]: -0.0327
- Bliss excess [11]: -0.011
- Bliss excess [12]: 0.0348
- Bliss excess (WM-115 (Melanoma) [13]): -0.0392
- Bliss excess [14]: 0.0108
- Bliss excess (ES1 (Ewing's Sarcoma) [15]): -0.0419
- Bliss excess [16]: 0.0164
- Bliss excess [17]: -0.0098
- combination Emax [18]: 0.957
- combination Emax [19]: 1
- combination Emax [20]: 0.877
- combination Emax [21]: 1
- combination Emax [22]: 0.959
- combination Emax (ES8 (Ewing's Sarcoma) [23]): 1
- combination Emax [24]: 0.805
- combination Emax (WIL2-NS (Non-Cancerous) [25]): 0.824
- combination Emax (NCI-H2818 (Mesothelioma) [26]): 0.599
- combination Emax [27]: 0.62
- combination Emax [28]: 0.49
- combination Emax [29]: 0.251
- combination Emax (WM-115 (Melanoma) [30]): 0.631
- combination Emax [31]: 0.975
- combination Emax (ES1 (Ewing's Sarcoma) [32]): 1
- combination Emax [33]: 0.529
- combination Emax [34]: 1

SMILES: CS(=O)(=O)CCNCc1ccc(-c2ccc3ncnc(Nc4ccc(OCc5cccc(F)c5)c(Cl)c4)c3c2)o1 [Lapatinib] + Cn1cnc2c(F)c(Nc3ccc(Br)cc3Cl)c(C(=O)NOCCO)cc21 [Selumetinib] (first compound max 10 µM, 7x7, partner max 10 µM)
- Bliss excess [1]: -0.0009
- Bliss excess [2]: -0.0147
- Bliss excess [3]: -0.0324
- Bliss excess [4]: 0.0398
- Bliss excess [5]: 0.0012
- Bliss excess (ES8 (Ewing's Sarcoma) [6]): 0.036
- Bliss excess [7]: -0.03
- Bliss excess (WIL2-NS (Non-Cancerous) [8]): 0.0098
- Bliss excess (NCI-H2818 (Mesothelioma) [9]): -0.0295
- Bliss excess [10]: 0.0194
- Bliss excess [11]: 0.0057
- Bliss excess [12]: 0.0178
- Bliss excess (WM-115 (Melanoma) [13]): 0.0205
- Bliss excess [14]: 0.0619
- Bliss excess (ES1 (Ewing's Sarcoma) [15]): 0.0071
- Bliss excess [16]: 0.0847
- Bliss excess [17]: -0.0346
- combination Emax [18]: 0.187
- combination Emax [19]: 0.511
- combination Emax [20]: 0.564
- combination Emax [21]: 0.707
- combination Emax [22]: 0.527
- combination Emax (ES8 (Ewing's Sarcoma) [23]): 0.555
- combination Emax [24]: 0.969
- combination Emax (WIL2-NS (Non-Cancerous) [25]): 0.321
- combination Emax (NCI-H2818 (Mesothelioma) [26]): 0.28
- combination Emax [27]: 0.732
- combination Emax [28]: 0.545
- combination Emax [29]: 0.871
- combination Emax (WM-115 (Melanoma) [30]): 0.531
- combination Emax [31]: 0.804
- combination Emax (ES1 (Ewing's Sarcoma) [32]): 0.452
- combination Emax [33]: 0.698
- combination Emax [34]: 0.907
